Assay results: US20250205253A1, “PHARMACEUTICAL COMPOSITION FOR PREVENTING OR TREATING BENIGN PROSTATIC HYPERPLASIA” (University-Industry Cooperation Group of Kyung Hee …, priority 2023, published 2025)

System: siRNA-transfected RWPE-1 cells
Assay: siRNA transfection (NLRP3 or AR knockdown) with qRT-PCR in RWPE-1 cells
Format: cell-based, human
Protocol: Total RNA was isolated using Easy-Blue® reagent (iNtRON Biotechnology, Inc., Gyeonggi, Korea) and transcribed into complementary DNA (cDNA) according to the manufacturer's instructions. Oligonucleotide primers (Table 1) were purchased from Bioneer Corporation (Daejeon, Korea). qRT-PCR was performed according to the known method.
The RWPE-1 cells were transfected with siRNA (Bioneer Corporation) or pmaxGFP™ vector using a 4D-Nucleofector™ system (Lonza, Basel, Switzerland). The following siRNA nucleotide sequences were used: NLRP3 siRNA, […]=tt(1-AS) (SEQ ID NO.: 39) and […]=tt (1-AA) (SEQ ID NO.: 40) and AR siRNA, […]=tt (6-AS) (forward) (SEQ ID NO.: 41) and […]=tt (6-AA) (reverse) (SEQ ID NO.: 42). After four hours of incubation, the cells were treated in the presence or absence of MitoQ 100 μM. The effect of NLRP3 or AR knockdown was detected using qRT-PCR.

| Substance | NLRP3 level (mRNA) in AR siRNA-transfected cells (DHT stimulation, with or without 100 μM MitoQ, FIG. 3E) | AR level (mRNA) in NLRP3 siRNA-transfected cells (DHT stimulation, with or without 100 μM MitoQ, FIG. 3D) | NLRP3 and IL-1β levels after siRNA transfection (DHT-stimulated RWPE-1, vs GFP-transfected cells, FIG. 2C) | NLRP3 mRNA expression after siRNA transfection (RWPE-1 cells, FIG. 2G) |
| --- | --- | --- | --- | --- |
| AR siRNA: siRNA CUCUCUUCACAGCCGAAGA=tt (SEQ ID NO.: 41) and UCUUCGGCUGUGAAGAGAG=tt (SEQ ID NO.: 42) (3' dTdT overhangs, further chemistry not given here) | significantly enhanced | – | – | – |
| NLRP3 siRNA: siRNA CGUGACAGUCCUUCUGGAA=tt (SEQ ID NO.: 39) and UUCCAGAAGGACUGUCACG=tt (SEQ ID NO.: 40) (3' dTdT overhangs, further chemistry not given here) | – | significantly increased | notably suppressed | significant decrease |
